The source of these data is EPA's ToxValDB 9.5 (doi:10.2903/j.efsa.2018.5251).

SMILES strings stand for the structures. Where only a bound is given, the exact number is not on record here.

The test system of data set [1] is Folsomia candida. The conditions noted are these: chronic/long-term; duration: 28 days.
Data set [2] relates to Rattus norvegicus. The conditions noted are these: for LD50: acute, oral, mortality.
Data set [3] concerns Tagia sp. The conditions noted are these: for LC50: acute; for NOEC: chronic/long-term, duration: 8 weeks.
Data set [4] concerns Anas platyrhynchos. The conditions noted are these: short-term; oral; feed; mortality.
Data set [5] deals with Apis mellifera. The conditions noted are these: acute, mortality.
In data set [6] the test system is Colinus virginianus. The conditions noted are these: acute; oral; mortality.
The subject of data set [7] is Coturnix japonica. The conditions noted are these: reproduction developmental.
Data set [8] concerns Lepomis macrochirus. The conditions noted are these: acute; duration: 96 hours.
In data set [9] the test system is Hypoaspis aculeifer. The data set is described as follows: LR50; higher = less toxic. The conditions noted are these: acute.
Where [10] appears, read: reproduction developmental, reproduction.

On to `Nc1ccc(S(N)(=O)=O)cc1` [Sulfanilamide], for which the NOAEC in [1] is 50 mg/kg. Moreover, the LD50 in [2] (F) was above 2000 mg/kg-day. In data set [3], this compound showed an LC50 above 1000 mg/kg and an NOEC of 3.75 mg/kg.
Take `COC(=O)[N-]S(=O)(=O)c1ccc(N)cc1.[Na+]` [Asulam-sodium]: the LC50 in data set [4] was above 100000 mg/kg; in data set [8], above 91.3 µg/mL; in [3] (duration: 14 days), 1000 mg/kg. Besides, the LD50 was above 100 µg/piece in data set [5] (dermal); above 124 µg/piece in data set [5] (oral, unspecified); above 1830 mg/kg-day in [6]; above 4560 mg/kg-day in data set [2]. The results for the no-observed-adverse-effect level (NOAEL) in data set [7] and in data set [2] (setting [10]) were 65 mg/kg-day and 46 mg/kg-day, respectively. This compound also returned an NOEL in [2] (setting [10]) of 46 mg/kg-day. The compound further came in with an NOEC in data set [3] of 181 mg/kg. In addition, in [9], the LR50 is above 4370 mg/kg.

What is called NOAEL is the highest tested level that showed no adverse finding.
